Measured values published in patent US10131652B2, “Pyrimidinyloxy benzene derivatives as herbicides” (E. I. DU PONT DE NEMOURS AND COMPANY, priority 2014, dated 2018).

How the values were obtained:
Assay type in all cases: in vivo
[1] = tested on: galium (catchweed bedstraw, Galium aparine); experiment: Test B postemergence plant response
Description: (§1) At the same time, plants selected from these crop and weed species and also blackgrass (Alopecurus myosuroides), and galium (catchweed bedstraw, Galium aparine) were planted in pots containing the same blend of loam soil and sand and treated with postemergence applications of test chemicals formulated in the same manner. Plants ranged in height from 2 to 10 cm and were in the one- to two-leaf stage for the postemergence treatment. Treated plants and untreated controls were maintained in a greenhouse for approximately 10 days, after which time all treated plants were compared to untreated controls and visually evaluated for injury. Plant response ratings, summarized in Table B, are based on a 0 to 100 scale where 0 is no effect and 100 is complete control. A dash (-) response means no test result.

[2] = tested on: blackgrass (Alopecurus myosuroides); experiment: Test B postemergence plant response
Description: as §1

[3] = tested on: ragweed (common ragweed, Ambrosia elatior); experiment: Test B pre-/postemergence plant response
Description: as §1, with “Seeds of plant species selected from bamyardgrass (Echinochloa crus-galli), kochia (Kochia scoparia), ragweed (common ragweed, Ambrosia elatior), Italian ryegrass (Lolium multiflorum), large (Lg) crabgrass (Digitaria sanguinalis), giant foxtail (Setaria faberii), momingglory (Ipomoea spp.), pigweed (Amaranthus retroflexus), velvetleaf (Abutilon theophrasti), wheat (Triticum aestivum), and corn (Zea mays) were planted into a blend of loam soil and sand and treated preemergence with a directed soil spray using test chemicals formulated in a non-phytotoxic solvent mixture which included a surfactant. At” for “At”

kochia (Kochia scoparia) = experiment: Test B pre-/postemergence plant response
Description: as §1, with “Seeds of plant species selected from bamyardgrass (Echinochloa crus-galli), kochia (Kochia scoparia), ragweed (common ragweed, Ambrosia elatior), Italian ryegrass (Lolium multiflorum), large (Lg) crabgrass (Digitaria sanguinalis), giant foxtail (Setaria faberii), momingglory (Ipomoea spp.), pigweed (Amaranthus retroflexus), velvetleaf (Abutilon theophrasti), wheat (Triticum aestivum), and corn (Zea mays) were planted into a blend of loam soil and sand and treated preemergence with a directed soil spray using test chemicals formulated in a non-phytotoxic solvent mixture which included a surfactant. At” for “At”

[4] = tested on: pigweed (Amaranthus retroflexus); experiment: Test B pre-/postemergence plant response
Description: as §1, with “Seeds of plant species selected from bamyardgrass (Echinochloa crus-galli), kochia (Kochia scoparia), ragweed (common ragweed, Ambrosia elatior), Italian ryegrass (Lolium multiflorum), large (Lg) crabgrass (Digitaria sanguinalis), giant foxtail (Setaria faberii), momingglory (Ipomoea spp.), pigweed (Amaranthus retroflexus), velvetleaf (Abutilon theophrasti), wheat (Triticum aestivum), and corn (Zea mays) were planted into a blend of loam soil and sand and treated preemergence with a directed soil spray using test chemicals formulated in a non-phytotoxic solvent mixture which included a surfactant. At” for “At”

[5] = tested on: barnyardgrass (Echinochloa crus-galli); experiment: Test B pre-/postemergence plant response
Description: as §1, with “Seeds of plant species selected from bamyardgrass (Echinochloa crus-galli), kochia (Kochia scoparia), ragweed (common ragweed, Ambrosia elatior), Italian ryegrass (Lolium multiflorum), large (Lg) crabgrass (Digitaria sanguinalis), giant foxtail (Setaria faberii), momingglory (Ipomoea spp.), pigweed (Amaranthus retroflexus), velvetleaf (Abutilon theophrasti), wheat (Triticum aestivum), and corn (Zea mays) were planted into a blend of loam soil and sand and treated preemergence with a directed soil spray using test chemicals formulated in a non-phytotoxic solvent mixture which included a surfactant. At” for “At”

[6] = tested on: Italian ryegrass (Lolium multiflorum); experiment: Test B pre-/postemergence plant response
Description: as §1, with “Seeds of plant species selected from bamyardgrass (Echinochloa crus-galli), kochia (Kochia scoparia), ragweed (common ragweed, Ambrosia elatior), Italian ryegrass (Lolium multiflorum), large (Lg) crabgrass (Digitaria sanguinalis), giant foxtail (Setaria faberii), momingglory (Ipomoea spp.), pigweed (Amaranthus retroflexus), velvetleaf (Abutilon theophrasti), wheat (Triticum aestivum), and corn (Zea mays) were planted into a blend of loam soil and sand and treated preemergence with a directed soil spray using test chemicals formulated in a non-phytotoxic solvent mixture which included a surfactant. At” for “At”

[7] = tested on: wheat (Triticum aestivum); experiment: Test B pre-/postemergence plant response
Description: as §1, with “Seeds of plant species selected from bamyardgrass (Echinochloa crus-galli), kochia (Kochia scoparia), ragweed (common ragweed, Ambrosia elatior), Italian ryegrass (Lolium multiflorum), large (Lg) crabgrass (Digitaria sanguinalis), giant foxtail (Setaria faberii), momingglory (Ipomoea spp.), pigweed (Amaranthus retroflexus), velvetleaf (Abutilon theophrasti), wheat (Triticum aestivum), and corn (Zea mays) were planted into a blend of loam soil and sand and treated preemergence with a directed soil spray using test chemicals formulated in a non-phytotoxic solvent mixture which included a surfactant. At” for “At”

[8] = tested on: giant foxtail (Setaria faberii); experiment: Test B pre-/postemergence plant response
Description: as §1, with “Seeds of plant species selected from bamyardgrass (Echinochloa crus-galli), kochia (Kochia scoparia), ragweed (common ragweed, Ambrosia elatior), Italian ryegrass (Lolium multiflorum), large (Lg) crabgrass (Digitaria sanguinalis), giant foxtail (Setaria faberii), momingglory (Ipomoea spp.), pigweed (Amaranthus retroflexus), velvetleaf (Abutilon theophrasti), wheat (Triticum aestivum), and corn (Zea mays) were planted into a blend of loam soil and sand and treated preemergence with a directed soil spray using test chemicals formulated in a non-phytotoxic solvent mixture which included a surfactant. At” for “At”

corn (Zea mays) = experiment: Test B pre-/postemergence plant response
Description: as §1, with “Seeds of plant species selected from bamyardgrass (Echinochloa crus-galli), kochia (Kochia scoparia), ragweed (common ragweed, Ambrosia elatior), Italian ryegrass (Lolium multiflorum), large (Lg) crabgrass (Digitaria sanguinalis), giant foxtail (Setaria faberii), momingglory (Ipomoea spp.), pigweed (Amaranthus retroflexus), velvetleaf (Abutilon theophrasti), wheat (Triticum aestivum), and corn (Zea mays) were planted into a blend of loam soil and sand and treated preemergence with a directed soil spray using test chemicals formulated in a non-phytotoxic solvent mixture which included a surfactant. At” for “At”

[9] = Postemergence, 1000 g ai/ha, 0 to 100 scale (0 no effect, 100 complete control)
[10] = Preemergence, 1000 g ai/ha, 0 to 100 scale (0 no effect, 100 complete control)
[11] = 31 g ai/ha, Postemergence, 0 to 100 scale, 0 no effect, 100 complete control
[12] = 125 g ai/ha, postemergence, 0 to 100 scale, 0 no effect, 100 complete control
[13] = Preemergence, 31 g ai/ha, 0 to 100 scale (0 no effect, 100 complete control)
[14] = Preemergence, 125 g ai/ha, 0 to 100 scale where 0 is no effect and 100 is complete control

In the case of `COC(=O)c1cc(-c2ccccc2Oc2ncc(Cl)cn2)no1` [Compound 235], the “Plant response rating, Galium” value [1, 9] is reported as 0, the “Plant response rating, Blackgrass” value [2, 9] is reported as 0 and the “Plant response rating, Ragweed” value [3, 9] is reported as 0. For the same molecule, the “Plant response rating, Ragweed” value [3, 10] was 0, the “Plant response rating, Kochia” value (kochia (Kochia scoparia); [9]) was 0 and the “Plant response rating, Kochia” value (kochia (Kochia scoparia); [10]) was 0. For the same molecule, the “Plant response rating, Pigweed” value [4, 9] was 0, the “Plant response rating, Pigweed” value [4, 10] was 0 and the “Plant response rating, Barnyardgrass” value [5, 9] was 0. For the same molecule, the “Plant response rating, Barnyardgrass” value [5, 10] was 0, the “Plant response rating, Ryegrass, Italian” value [6, 9] was 0 and the “Plant response rating, Ryegrass, Italian” value [6, 10] was 0. The “Plant response rating, Wheat” value [7, 9] was 0, the “Plant response rating, Foxtail, Giant” value [8, 9] was 0 and the “Plant response rating, Foxtail, Giant” value [8, 10] was 0. The “Plant response rating, Corn” value (corn (Zea mays); [9]) was 0.
For `O=Cc1cc(-c2c(Br)cccc2Oc2ncc(Cl)cn2)no1` [Compound 195], the “Plant response rating, Galium” value [1, 9] was 10, the “Plant response rating, Blackgrass” value [2, 9] was 0 and the “Plant response rating, Ragweed” value [3, 9] was 10. For the same molecule, the “Plant response rating, Ragweed” value [3, 10] was 10, the “Plant response rating, Kochia” value (kochia (Kochia scoparia); [9]) was 10 and the “Plant response rating, Kochia” value (kochia (Kochia scoparia); [10]) was 0. For the same molecule, the “Plant response rating, Pigweed” value [4, 9] was 50, the “Plant response rating, Pigweed” value [4, 10] was 60 and the “Plant response rating, Barnyardgrass” value [5, 9] was 10. The “Plant response rating, Barnyardgrass” value [5, 10] was 40, the “Plant response rating, Ryegrass, Italian” value [6, 9] was 10 and the “Plant response rating, Ryegrass, Italian” value [6, 10] was 0. The “Plant response rating, Wheat” value [7, 9] was 0, the “Plant response rating, Foxtail, Giant” value [8, 9] was 10 and the “Plant response rating, Foxtail, Giant” value [8, 10] was 30. For the same molecule, the “Plant response rating, Corn” value (corn (Zea mays); [9]) was 10.
In the case of `Clc1cnc(Oc2ccccc2-c2ncns2)nc1` [Compound 172], the “Plant response rating, Galium” value [1, 9] is reported as 10, the “Plant response rating, Blackgrass” value [2, 9] is reported as 0 and the “Plant response rating, Ragweed” value [3, 9] is reported as 10. The “Plant response rating, Ragweed” value [3, 10] was 0, the “Plant response rating, Kochia” value (kochia (Kochia scoparia); [9]) was 30 and the “Plant response rating, Kochia” value (kochia (Kochia scoparia); [10]) was 20. The “Plant response rating, Pigweed” value [4, 9] was 80, the “Plant response rating, Pigweed” value [4, 10] was 90 and the “Plant response rating, Barnyardgrass” value [5, 9] was 10. For the same molecule, the “Plant response rating, Barnyardgrass” value [5, 10] was 0, the “Plant response rating, Ryegrass, Italian” value [6, 9] was 0 and the “Plant response rating, Ryegrass, Italian” value [6, 10] was 0. For the same molecule, the “Plant response rating, Wheat” value [7, 9] was 0, the “Plant response rating, Foxtail, Giant” value [8, 9] was 10 and the “Plant response rating, Foxtail, Giant” value [8, 10] was 30. For the same molecule, the “Plant response rating, Corn” value (corn (Zea mays); [9]) was 10.
For `FC(F)=Cc1cc(-c2c(F)cccc2Oc2ncc(Cl)cn2)no1` [Compound 91], the “Plant response rating, Galium” value [1, 11] was 0, the “Plant response rating, Galium” value [1, 12] was 0 and the “Plant response rating, Blackgrass” value [2, 11] was 0. For the same molecule, the “Plant response rating, Blackgrass” value [2, 12] was 0, the “Plant response rating, Ragweed” value [3, 11] was 0 and the “Plant response rating, Ragweed” value [3, 12] was 0. For the same molecule, the “Ragweed plant response rating” value [3, 13] was 0, the “Plant response rating, Ragweed” value [3, 14] was 0 and the “Plant response rating, Kochia” value (kochia (Kochia scoparia); [11]) was 0. The “Plant response rating, Kochia” value (kochia (Kochia scoparia); [12]) was 0, the “Kochia plant response rating” value (kochia (Kochia scoparia); [13]) was 0 and the “Plant response rating, Kochia” value (kochia (Kochia scoparia); [14]) was 0. For the same molecule, the “Plant response rating, Pigweed” value [4, 11] was 0, the “Plant response rating, Pigweed” value [4, 12] was 0 and the “Pigweed plant response rating” value [4, 13] was 0. The “Plant response rating, Pigweed” value [4, 14] was 0, the “Plant response rating, Barnyardgrass” value [5, 11] was 0 and the “Plant response rating, Barnyardgrass” value [5, 12] was 0. The “Barnyardgrass plant response rating” value [5, 13] was 0, the “Plant response rating, Barnyardgrass” value [5, 14] was 0 and the “Plant response rating, Ryegrass, Italian” value [6, 11] was 0. The “Plant response rating, Ryegrass, Italian” value [6, 12] was 0, the “Ryegrass, Italian plant response rating” value [6, 13] was 0 and the “Plant response rating, Ryegrass, Italian” value [6, 14] was 0. The “Plant response rating, Wheat” value [7, 11] was 0, the “Plant response rating, Wheat” value [7, 12] was 0 and the “Plant response rating, Foxtail, Giant” value [8, 11] was 0. For the same molecule, the “Plant response rating, Foxtail, Giant” value [8, 12] was 0, the “Foxtail, Giant plant response rating” value [8, 13] was 0 and the “Plant response rating, Foxtail, Giant” value [8, 14] was 0. The “Plant response rating, Corn” value (corn (Zea mays); [11]) was 0 and the “Plant response rating, Corn” value (corn (Zea mays); [12]) was 0.
